Measured values taken from patent publication US20030166694A1, “Glycinamides” (priority 2000, published 2003).

How the values were obtained:
[1] = molecular target: factor Xa, human (Homo sapiens, UniProt P00742); experiment: Inhibition of factor Xa (table title: Affinity to receptors); type: biochemical
Excerpt: The inhibition of factor Xa by the compounds according to the invention and the measurement of the anticoagulant and antithrombotic activity can be determined by conventional in-vitro or in-vivo methods. A suitable method is described, for example, by J. Hauptmann et al. in Thrombosis and Haemostasis 1990, 63, 220-223.
The inhibition of factor Xa can be measured, for example, by the method of T. Hara et al. in Thromb. Haemostas. 1994, 71, 314-319.

[2] = molecular target: TF/VIIa (Homo sapiens, UniProt P08709); experiment: Inhibition of TF/VIIa (table title: Affinity to receptors); type: biochemical
Excerpt: The inhibition of factor VIIa by the compounds according to the invention and the measurement of the anticoagulant and antithrombotic activity can be determined by conventional in-vitro or in-vivo methods. A conventional method for the measurement of the inhibition of factor VIIa is described, for example, by H. F. Ronning et al. in Thrombosis Research 1996, 84, 73-81.

Sequence of factor Xa, human (P00742 235-488 limits assumed): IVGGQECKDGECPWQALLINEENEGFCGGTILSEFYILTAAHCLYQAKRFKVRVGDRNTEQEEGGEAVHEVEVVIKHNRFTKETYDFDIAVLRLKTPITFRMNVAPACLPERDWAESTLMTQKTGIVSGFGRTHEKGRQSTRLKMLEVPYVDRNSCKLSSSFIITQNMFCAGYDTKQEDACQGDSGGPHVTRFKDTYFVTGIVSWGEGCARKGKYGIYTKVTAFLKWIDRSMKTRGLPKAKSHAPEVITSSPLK
Sequence of factor Xa, human (P00742 41-179 limits assumed): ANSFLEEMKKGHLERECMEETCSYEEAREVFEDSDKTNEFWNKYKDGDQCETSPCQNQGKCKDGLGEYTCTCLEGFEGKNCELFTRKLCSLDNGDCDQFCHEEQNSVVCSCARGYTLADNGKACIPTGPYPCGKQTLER
Sequence of TF/VIIa (P08709 213-466 limits assumed): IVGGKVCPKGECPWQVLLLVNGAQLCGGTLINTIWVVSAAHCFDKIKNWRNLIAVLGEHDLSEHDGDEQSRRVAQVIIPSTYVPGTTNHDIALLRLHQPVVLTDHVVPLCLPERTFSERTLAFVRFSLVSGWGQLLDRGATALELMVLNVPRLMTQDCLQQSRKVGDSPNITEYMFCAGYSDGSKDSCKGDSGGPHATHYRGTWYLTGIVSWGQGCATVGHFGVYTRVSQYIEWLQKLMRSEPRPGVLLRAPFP
Sequence of TF/VIIa (P08709 61-212 limits assumed): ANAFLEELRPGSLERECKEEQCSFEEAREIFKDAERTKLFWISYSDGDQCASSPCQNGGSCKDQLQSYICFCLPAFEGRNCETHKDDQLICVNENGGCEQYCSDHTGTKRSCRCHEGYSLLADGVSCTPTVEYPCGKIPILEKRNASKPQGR
Sequence of TF/VIIa (P13726 33-295 partner): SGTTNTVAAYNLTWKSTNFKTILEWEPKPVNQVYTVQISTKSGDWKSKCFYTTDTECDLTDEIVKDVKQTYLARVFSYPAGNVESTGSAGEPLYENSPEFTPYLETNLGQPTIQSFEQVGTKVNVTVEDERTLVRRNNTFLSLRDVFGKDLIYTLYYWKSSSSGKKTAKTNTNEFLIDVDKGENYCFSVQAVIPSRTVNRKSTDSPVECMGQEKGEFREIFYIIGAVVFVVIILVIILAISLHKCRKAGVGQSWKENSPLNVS

Row | IC50 [1] | IC50 [2] | SMILES
1 | 81 nM | 15 nM | N=C(N)c1cccc(N(CC(=O)Nc2ccc(-c3ccccc3S(N)(=O)=O)cc2)Cc2ccccc2)c1 [N-(2′-aminosulfonylbiphenyl-4-yl)-2-[(3-amidinophenyl)-N-benzylamino]acetamide]
2 | 480 nM | 370 nM | CC(C)CN(CC(=O)Nc1ccc(-c2ccccc2S(N)(=O)=O)cc1)c1cccc(C(=N)N)c1 [N-(2′-aminosulfonylbiphenyl-4-yl)-2-[(3-amidinophenyl)-N-isobutylamino]acetamide]
3 | 10 nM | 25 nM | CN(CC(=O)Nc1ccc(-c2ccccc2S(N)(=O)=O)cc1)c1cccc(C(=N)N)c1 [N-(2′-aminosulfonylbiphenyl-4-yl)-2-[(3-amidinophenyl)-N-methylamino]acetamide]
4 | 130 nM | 44 nM | CCCN(CC(=O)Nc1ccc(-c2ccccc2S(N)(=O)=O)cc1)c1cccc(C(=N)N)c1 [N-(2′-aminosulfonylbiphenyl-4-yl)-2-[(3-amidinophenyl)-N-propylamino]acetamide]
5 | 120 nM | 31 nM | CCCN(CC(=O)Nc1ccc(-c2ccccc2S(C)(=O)=O)cc1)c1cccc(C(=N)N)c1 [N-(2′-methylsulfonylbiphenyl-4-yl)-2-[(3-amidinophenyl)-N-propylamino]acetamide]
